The text below walks through data of US10780092B2, “Fused pyrazine derivatives useful as soluble guanylate cyclase stimulators” (Merck Sharp & Dohme Corp., priority 2016, dated 2020).

Assay [1] concerns the target sGC α1/β1 heterodimer (Homo sapiens (Human), UniProt Q02108+Q02153). The experiment in a line: Cell-based sGC functional assay (CASA assay), cGMP by HTRF. The settings on record: CHO-K1/sGC cells; for Emax: CHO-K1, cGMP production as percentage of maximum of compound A (set to 100%), read-out: % Activation; for EC50: inflection point of cGMP production, 4P fit, read-out: IP; for % Activation: cGMP production as percentage of maximum of compound A (set to 100%). An excerpt: Cell-Based sGC Functional Assay (Cyclic GMP Assay for sGC Activator: CASA Assay)
Soluble guanylate cyclase (sGC) is a heme-containing enzyme that converts GTP to secondary messenger cGMP. Increases in cGMP levels affect several physiological processes including vasorelaxation through multiple downstream pathways. […] Heme-dependent activators (HDAs) preferentially target sGC containing a ferrous heme group. To determine the effect of sGC activators on enzyme activity, the CASA assay was developed to monitor the generation of cGMP in a cell line that stably expresses the heterodimeric sGC protein.
A CHO-K1 cell line stably expressing the sGC α1/β1 heterodimer was generated using a standard transfection protocol. The cDNA's encoding human sGC α1 and β1 were cloned in pIRES hyg and pIRES neo respectively using standard molecular biology techniques. The plasmids pIRES hyg and pIRES neo plasmids were obtained from Clontech. CHO-K1 cells were transfected with plasmids pIREShyg-hsGCα1 and pIRESneo-hsGCβ1 simultaneously using FUGENE reagent. Clones that stably express both subunits were selected with hygromycin and neomycin for ˜2 weeks. The clone chosen for the assay was designated CHO-K1/sGC. CHO-K1/sGC cells were maintained in F-K12 medium containing 10% heat-inactivated Fetal Bovine Serum (FBS), 100 μg/mL penicillin/streptomycin, 0.5 mg/mL hygromycin and 0.25 mg/mL G418. The cells were then cryopreserved in liquid nitrogen. On the day of the assay, the cells were thawed and resuspended in EBSS Assay Buffer (Sigma, E3024) supplemented with 5 mM MgCl2, 10 mM HEPES (4-(2-hydroxyethyl)piperazine-1-ethanesulfonic acid) and 0.05% BSA (bovine serum albumin) and cell density was then adjusted to 2.25×10^5/mL with EAB. IBMX (3-isobutyl-1-methylxanthin, 0.5 mM) was added to inhibit degradation of cGMP. Compounds were diluted from DMSO stock solutions and added to the assay at a final DMSO concentration of 2.5%. Cells were pre-incubated in the presence and absence of 1 μM of Diethylenetriamine/nitric oxide adduct (DETA-NO; Sigma, 17018) for 30 min at 25° C. Compounds were subsequently added and incubated for 1 hr at 37° C. At the end of the incubation period, the reaction was terminated and the cells were lysed with the detection reagents from Cisbio Kits. The level of intracellular cGMP was determined using an HTRF-based assay kit (CisBio, 62GM2PEC), which detects the displacement of a fluorescence labeled cGMP from its specific antibody. The cGMP produced by test compounds was directly compared to the maximum cGMP production (this value was set to equal 100% activation) of the published sGC compound A (Example 1 in WO 2010/065275, published Jun. 10, 2010).
The test compounds' activities were then expressed as a percentage of compound A, the standard in every experiment. This percent activation was calculated either in the presence or absence of DETA-NO which was then plotted. Inflection points (IP) and maximum fold induction was derived using Abase analysis software for 4P fit.

Assay [2] addresses human recombinant sGC enzyme (Homo sapiens (Human), UniProt Q02108+Q02153). The experiment in a line: SEC competition binding assay with [3H] Compound B radioligand. The settings on record: displacement of 1.6 nM [3H] Compound B, 24 h at 37° C. As to the method:
The binding potencies of sGC compounds to the human recombinant sGC enzyme were determined in a Size Exclusion Chromatography (SEC) competition binding assay using [^3H] Compound B as the radioligand. [^3H] Compound B was prepared using a standardardized tritium exchange procedure. The parent (non-labeled) molecule was first iodinated then a Pd-catalyzed iodine to tritium exchange provided the labeled compound.
Method: The binding buffer was composed of 50 mM triethanolamine pH 7.4, 3 mM MgCl2, 0.025% BSA, 2 mM dithiothreitol (DTT), 300 μM DETA/NO and 400 μM GTP. Assays were conducted in 96-well plates in a total volume of 200 μL. Recombinant human sGC protein (40 ng) was incubated with 1.6 nM [^3H] Compound B for 24 h at 37° C. in the presence and absence of various concentrations of sGC testing compounds delivered as DMSO solutions to give a total of 1% organic solvent content. Non-specific binding was defined by competition with 1 μM of Compound B. After the incubation period, the binding mixtures were loaded onto the gel-filtration plate (ThermoFischer Cat. No. 89808) pre-equilibrated with binding buffer and spun at 1000×g for 3 min at 4° C. on a Bench top centrifuge. The collected eluates in White Frame Clear Well Isoplates (Perkin Elmer Cat #6005040) received 100 μl of UltimaGold scintillation cocktail. The sealed plates were shaken vigorously and span, and counted after 6 hs with a Wallac Microbeta TriLux 1450 LSC & Luminescence Counter (Perkin Elmer). Data from competition experiments were analyzed to determine Ki values using one site—fit Ki equation.

The term Ki denotes the dissociation constant of the complex between target and ligand, obtained from inhibition or displacement. On to `CC1CCC(Cc2nc(-c3nc(N)c4c(n3)NC(=O)C4(C)c3ccc(O)c(Cl)c3)cn3ccnc23)CC1` (single isomer, unassigned) [Example 120-BA, 4-Amino-5-(3-chloro-4-hydroxyphenyl)-5-methyl-2-{8-[(4-methyl-cyclohexyl)methyl]-imidazo[1,2-a]pyrazin-6-yl}-5,7-dihydro-6H-pyrrolo[2,3-d]pyrimidin-6-one], for which, in assay [1], the Emax amounted to 133% and the EC50 is 85 nM. Further, the Ki in assay [2] came out at 10.9 nM.
For `CC1(c2cc(O)c(Cl)c(F)c2)C(=O)Nc2nc(-c3cn4ccnc4c(Cc4cccc(F)c4)n3)nc(N)c21` (stereo not drawn) [Example 5-B, 4-Amino-5-(4-chloro-3-fluoro-5-hydroxyphenyl)-2-{8-[(3-fluorophenyl)methyl]imidazo[1,2-a]pyrazin-6-yl}-5-methyl-5,7-dihydro-6H-pyrrolo[2,3-d]pyrimidin-6-one], in that order: 113%, 188 nM and 0.091 nM.
As for `CC(C)CCc1nc(-c2nc(N)c3c(n2)NC(=O)C3(C)c2ccc(F)c(O)c2)cn2ccnc12` (stereo not drawn) [Example 47-B, 4-Amino-5-(4-fluoro-3-hydroxyphenyl)-2-(8-isopentylimidazo[1,2-a]pyrazin-6-yl)-5-methyl-5,7-dihydro-6H-pyrrolo[2,3-d]pyrimidin-6-one], in assay [1], the Emax came out at 103% and the EC50 worked out at 70 nM. The Ki in assay [2] is 0.676 nM.
Regarding `Cc1cccc(Cc2nc(-c3nc(N)c4c(n3)NC(=O)C4(C)c3cccc(O)c3)cn3ccnc23)c1` (stereo not drawn) [Example 122-B, 4-Amino-5-(3-hydroxy-phenyl)-5-methyl-2-{8-[(3-methylphenyl)methyl]-imidazo[1,2-a]pyrazin-6-yl}-5,7-dihydro-6H-pyrrolo-[2,3-d]pyrimidin-6-one], in assay [1], the Emax amounted to 106% and the EC50 was determined as 1820 nM. Also, in assay [2], the Ki came out at 15.6 nM.
Take `CC1(c2ccc(O)c(F)c2)C(=O)Nc2nc(-c3cn4ccnc4c(Cc4ccccc4)n3)nc(N)c21` (stereo not drawn) [Example 128-B, 4-Amino-2-(8-benzyl-imidazo[1,2-a]pyrazin-6-yl)-5-(3-fluoro-4-hydroxyphenyl)-5-methyl-5,7-dihydro-6H-pyrrolo[2,3-d]-pyrimidin-6-one]: in assay [1], the Emax stood at 137% and the EC50 came out at 1200 nM. For the same compound, the inhibitory constant (Ki) in assay [2] is 0.646 nM.
For `CCCCc1nc(-c2nc(N)c3c(n2)NC(=O)C3(C)c2ccc(O)c(F)c2)cn2ncnc12` (stereo not drawn) [Example 71-B, 4-Amino-2-(8-butyl-[1,2,4]triazolo[1,5-a]pyrazin-6-yl)-5-(3-fluoro-4-hydroxyphenyl)-5-methyl-5,7-dihydro-6H-pyrrolo[2,3-d]pyrimidin-6-one], in that order: 81%, 30 nM and 4.08 nM.
As to `CCCCc1nc(-c2nc(N)c3c(n2)NC(=O)C3(C)c2ccc(O)c(Cl)c2)cn2ccnc12` (stereo not drawn) [Example 75-B, 4-Amino-2-(8-butylimidazo[1,2-a]pyrazin-6-yl)-5-(3-chloro-4-hydroxyphenyl)-5-methyl-5,7-dihydro-6H-pyrrolo[2,3-d]pyrimidin-6-one], in assay [1], the Emax stood at 153% and the EC50 turned out to be 770 nM. Further, the inhibition constant (Ki) in assay [2] stood at 6.55 nM.
`CC1(c2ccc(O)cc2)C(=O)Nc2nc(-c3cn4ncnc4c(CCC(F)(F)C(F)(F)F)n3)nc(N)c21` (stereo not drawn) [Example 80-B, 4-Amino-5-(4-hydroxyphenyl)-5-methyl-2-(8-(3,3,4,4,4-pentafluorobutyl)-[1,2,4]triazolo[1,5-a]pyrazin-6-yl)-5,7-dihydro-6H-pyrrolo[2,3-d]pyrimidin-6-one]: in assay [1], the Emax was 70% and the EC50 came to 19 nM. For the same compound, the Ki in assay [2] is 9.98 nM.
In the case of `CC1(c2cc(Cl)c(O)cn2)C(=O)Nc2nc(-c3cn4ccnc4c(Cc4ccccc4F)n3)nc(N)c21` (single isomer, unassigned) [Example 53-B, 4-Amino-5-(4-chloro-5-hydroxypyridin-2-yl)-2-{8-[(2-fluorophenyl)methyl]imidazo[1,2-a]pyrazin-6-yl}-5-methyl-5,7-dihydro-6H-pyrrolo[2,3-d]pyrimidin-6-one], in assay [1], the “% Activation” value was found to be 144% and the EC50 came to 771 nM. Moreover, the Ki in assay [2] amounted to 1.08 nM.
Regarding `CC(C)CCc1nc(-c2nc(N)c3c(n2)NC(=O)C3(C)c2ccc(O)c(F)c2)cn2ccnc12` (stereo not drawn) [Example 54-B, 4-Amino-5-(3-fluoro-4-hydroxyphenyl)-2-(8-isopentylimidazo[1,2-a]pyrazin-6-yl)-5-methyl-5,7-dihydro-6H-pyrrolo[2,3-d]pyrimidin-6-one], in assay [1], the Emax was 72% and the EC50 turned out to be 42 nM. The Ki in assay [2] was determined as 1.08 nM.
Regarding `CC1(c2ccc(O)c(F)c2)C(=O)Nc2nc(-c3cn4ccnc4c(CCC4CCCCC4)n3)nc(N)c21` (stereo not drawn) [Example 84-B, 4-Amino-2-(8-(2-cyclohexylethyl)imidazo[1,2-a]pyrazin-6-yl)-5-(3-fluoro-4-hydroxyphenyl)-5-methyl-5,7-dihydro-6H-pyrrolo[2,3-d]pyrimidin-6-one], in assay [1], the Emax came to 121% and the EC50 was 313 nM. Further, the Ki in assay [2] is 3.46 nM.
Taken in the same sequence, the figures for `CC1(c2ccc(Cl)c(O)c2)C(=O)Nc2nc(-c3cn4ccnc4c(Cc4cc(F)ccc4F)n3)nc(N)c21` (stereo not drawn) [Example 19-A, 4-Amino-5-(4-chloro-3-hydroxyphenyl)-2-{8-[(2,5-difluorophenyl)methyl]imidazo[1,2-a]pyrazin-6-yl}-5-methyl-5,7-dihydro-6H-pyrrolo[2,3-d]pyrimidin-6-one] were 152%, 78 nM and 0.17 nM.
For `CC1(c2cc(O)c(Cl)cn2)C(=O)Nc2nc(-c3cn4ccnc4c(Cc4cc(F)cc(F)c4)n3)nc(N)c21` (stereo not drawn) [Example 40-B, 4-Amino-5-(5-chloro-4-hydroxypyridin-2-yl)-2-{8-[(3,5-difluorophenyl)methyl]imidazo[1,2-a]pyrazin-6-yl}-5-methyl-5,7-dihydro-6H-pyrrolo[2,3-d]pyrimidin-6-one], in that order: 88%, 368 nM and 0.479 nM.
In the case of `CC1CCC(Cc2nc(-c3nc(N)c4c(n3)NC(=O)C4(C)c3ccc(Cl)c(O)c3)cn3ccnc23)CC1` (stereo not drawn) [Example 108-AB, 4-Amino-5-(4-chloro-3-hydroxyphenyl)-5-methyl-2-{8-[(4-methylcyclohexyl)methyl]imidazo[1,2-a]pyrazin-6-yl}-5,7-dihydro-6H-pyrrolo[2,3-d]pyrimidin-6-one], in assay [1], the “% Activation” value is 127% and the EC50 was found to be 210 nM. Also, the Ki in assay [2] was 0.524 nM.
